The values below come from PMC12067444, “Synthesis and Pharmacological Characterization of Novel Peripheral Cannabinoid-1 Receptor Blockers Based on a Tricyclic Scaffold” (Journal of Medicinal Chemistry, 2025).

Read-outs that look alike come from different tables or passages of the source.

Data set [1] is described as follows: Brain compound levels in the CNS side-effect study (Figure 2H). It counts as in vivo. The note with it: male, C57Bl/6J, mouse, brain; rimonabant 10 mg/kg PO, 1 h after administration. Here is the method:
The ability of BNS808 and rimonabant (as a positive control) to induce centrally mediated hyperactivity in mice (A–C). Wild-type, male, C57Bl/6J mice received a single dose of rimonabant (10 mg/kg, PO), BNS808 (1 or 10 mg/kg, PO) or vehicle, and the Promethion High-Definition Behavioral Phenotyping System monitored the activity profile. In addition, the ability of BNS808 and rimonabant (as a positive control) to inhibit the hypomotility induced by a CB1R receptor agonist (HU210; 30 μg/kg, IP) was tested in wild-type, male, C57Bl/6J mice which received a single dose of rimonabant (10 mg/kg, PO) or BNS808 (1 or 10 mg/kg, PO) or vehicle (D–F). […] Data represent the mean ± SEM from 4 to 8 mice per group. *P < 0.05 vs Vehicle-treated control. ^#P < 0.05 vs rimonabant.

Data set [2] is described as follows: Tissue distribution after acute oral administration. In kind it is in vivo, mouse. As to conditions: male, C57Bl/6J, mouse, 1 mg/kg PO, 1 h post-acute administration. Here is the method:
Male C57Bl/6J mice aged 7–9 weeks (3–4 mice per compound) were fasted overnight before administering each test compound. The compounds were accurately weighed and mixed with an appropriate vehicle to prepare a clear oral solution. The formulations were freshly prepared on the dosing day, and the mice were administered the compound via oral gavage within 4 h of formulation preparation. 1, 2, 4, and 8 h after compound administration, the mice were euthanized, and approximately 200 μL of blood was collected via cardiac puncture for plasma preparation. Brain and liver tissues were harvested and processed for analysis. Sample analysis was performed using LC-MS/MS, as described in detail in the SI. […]
calculated using the equation:
Lucif er yellow = VV bbbbbbbbbbbbbbbbbbbb ×RR FFFF bbbbbbbbbbbbbbbbbbbb ×100 […]
Measurements of BNS808 using LC-MS/MS. MS/MS analyses were conducted using a Sciex QTRAP® 6500+ mass spectrometer (Framingham, MA, USA). Air was […]
Infinity 1031 nitrogen generator (Peak Scientific, Inchinnan, Scotland). Purified air […]
generator to ensure a continuous and stable air supply.

The subject of data set [3] is mice. The data set can be described thus: Cataleptic behavior (bar test) induced by WIN-55,212. In kind it is in vivo, mouse. The note with it: rimonabant 10 mg/kg PO, BNS808 1 mg/kg; 30 min before WIN-55,212 3 mg/kg IP; bar test at 60 min. As for the experimental part:
Catalepsy was assayed using the bar test. Mice were taken out of their home cages, and their forepaws were placed on a horizontal bar measuring 0.5 cm in diameter, positioned 4 cm above the bench surface. Typically, vehicle-treated mice released the bar within 2 s. Cataleptic behavior was defined as the mice remaining motionless, grasping onto the bar, with an arbitrary cutoff of 30 s. The CB1R antagonists, including rimonabant at doses 1 and 10 mg/kg and BNS808 at a dose of 1 mg/kg, were administered 30 min before the IP injection of 3 mg/kg WIN-55,212 (a CB1R agonist). The test was conducted 60 min after the administration of the agonist.

Data set [4] in a line: in vitro. As to conditions: mouse. As for the experimental part:
(§1) Protein binding of test compound in mouse brain using equilibrium dialysis […]
(§2) method. Solution A (0. 5 mM) was prepared by mixing 10 µL of a 10 mM stock solution […]
(§3) with 190 µL of DMSO. Subsequently, Solution B (0.02 mM) was prepared by adding […]
(§4) 8 µL of solution A to 192 µL of 0.05 M sodium phosphate buffer. The final concentration of DMSO in Solution B was 4%.
(§5) A 96-well plate was initially prepared by dispensing 380 µL aliquots of brain […]
(§6) tissue into wells designated for the brain while t h e buffer was added to the remaining […]
(§7) wells to serve as a control. Subsequently, 20 µL of Solution B (containing 0.02 mM of […]
(§8) test and reference compounds) was spiked into the pre-loaded brain samples in the […]
(§9) plate. This step yielded a final test concentration of 1 µM, containing 0.2% DMSO. A duplicate system was establi shed for the dialysis sampl es wherein brain tissu e was prepared against buffer. Initially, 100 µL aliquots of blank dialysis buffer were applied to the receiver side of the dialysis chambers. Subsequently, 100 µL aliquots of the brain […]
(§10) tissue spiked with te st and reference compounds were applied to the donor side of the […]
(§11) T0 brain samples for initial concentrations were prepared in duplicate. A 25µL […]
(§12) aliquot of the brain spiked with test and reference compounds was transferred into a 96- […]
(§13) well sample preparation plate. An equivalent volume of blank buffer was then added […]
(§14) to each well. Af ter the 5-hour incubation period, aliquots of 25 µL wer e taken f r om t h e […]
(§15) dialysis apparatus's donor and receiver sides and transferred into new sample […]
(§16) preparation plates. An equal volume of the opposite matrix (blank buffer to brain and […]
(§17) vice versa) was added to each well, resulting in a final volume of 50 µL in each well.
(§18) The samples (both T0 and f i v e h) were then quenched with 200 µL of acetonitrile […]
(§19) containing internal standard (IS) and vortexed at 600 rpm for 10 minutes. After […]
(§20) vortexing, the samples were centrifuged at 5594 × g for 15 minutes. Subsequently, 50 […]
(§21) µL of the supernatants were transferred to a new 96-well plate and mixed with 50 µL […]
(§22) of Milli- Q water. T he sample plates wer e cover ed and stor ed in a f r eezer ( -20 ℃) until […]
(§23) respectively. For data analysis, the following equations wer e used:
(§24) % Bound = 100 × ([Donor]5h -[ Receiver] 5h) / [Donor] 5h
(§25) % Recovery= 100 × ([Donor]5h +[Receiver] 5h) / [Initial] 0h
(§26) Undiluted Fu (%) = (1/D) / [(1/Fu2-1 ) + 1/ D ]
(§27) Whereas; D: Dilution factor = Dilution factor of brain: 4

In data set [5] the test system is mouse brain tissue. The data set can be described thus: in vitro. The note with it: mouse, 5 h, 1 µM. Here is the method:
as §1, §2, §3, §4, §5, §6, §7, §8, §9, §10, §11, §12, §13, §14, §15, §16, §17, §18, §19, §20, §21, §22, §23, §24, §25, §26, §27

As to `Cc1c(C(=O)NN2CCCCC2)nn(-c2ccc(Cl)cc2Cl)c1-c1ccc(Cl)cc1` [rimonabant], the concentration at 1 h worked out at 600 ng/g in data set [1]; 128 ng/g in data set [2] (brain, read-out: brain concentration); 226 ng/g in data set [2] (liver, read-out: liver concentration); 30 ng/mL in data set [2] (plasma, read-out: plasma concentration). The Kp at 1 h in data set [2] (brain / plasma, read-out: brain-to-plasma (B/P) ratio) came out at 4.28; in data set [2] (liver / plasma, read-out: liver/plasma (L/P) ratio), 7.4. Further, the “blockade of WIN-55,212-induced cataleptic behavior” value in data set [3] is “blocked the cataleptic behavior”.
On to `CC(=O)CC(c1ccccc1)c1c(O)c2ccccc2oc1=O` (centres unmarked) [Warfarin, reference compound], for which, in data set [4], the fraction unbound at 5 h, 1 µM came to 0.277. Besides, in data set [4] (tissue homogenate), the fraction unbound at 5 h, 1 µM came out at 0.605. In data set [5], the “Fraction of bound (%)” value is listed as 39.5% and the “Undiluted Bound (%)” value stood at 72.3%.

Broadly, the fraction unbound is the share of the substance not bound to proteins or other matrix. Read a high fraction unbound as much free substance.
